IC50 and EC50 data for 24 compounds are collected here from patent publication US20240043427A1 (Gilead Sciences, Inc., priority 2020, published 2024).

Assay [1] has as its target T1, CD73 (Homo sapiens (Human), UniProt P21589). The format is biochemical. To be noted: 1 mM NaH2PO4 in enzyme buffer, CD73 0.3 nM, AMP 15 uM.
For assay [2], the target named is T1, CD73. Nature of the assay: MDA-MB-231 Cell Based CD73 Activity Assay (DMEM). The conditions noted are these: MDA-MB-231-GFP cells, DMEM medium with 10% human plasma, 200 uM AMP.

T1 sequence (P21589 27-574): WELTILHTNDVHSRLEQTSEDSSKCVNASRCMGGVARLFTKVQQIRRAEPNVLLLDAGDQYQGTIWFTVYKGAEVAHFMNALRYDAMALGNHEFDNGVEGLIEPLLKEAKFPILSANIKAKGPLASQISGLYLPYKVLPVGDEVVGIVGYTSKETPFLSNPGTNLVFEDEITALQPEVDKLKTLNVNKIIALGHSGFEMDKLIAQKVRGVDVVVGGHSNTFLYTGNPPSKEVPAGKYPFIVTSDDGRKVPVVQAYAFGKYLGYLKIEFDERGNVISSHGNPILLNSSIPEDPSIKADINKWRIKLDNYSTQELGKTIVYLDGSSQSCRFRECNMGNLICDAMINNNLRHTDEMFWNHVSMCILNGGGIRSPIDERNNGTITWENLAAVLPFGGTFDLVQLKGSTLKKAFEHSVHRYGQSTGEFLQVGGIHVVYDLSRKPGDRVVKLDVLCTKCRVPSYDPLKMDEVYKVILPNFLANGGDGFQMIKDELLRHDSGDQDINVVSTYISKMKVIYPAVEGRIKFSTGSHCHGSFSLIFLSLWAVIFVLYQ

`CCOC(=O)OC1CN(c2cc(-c3c[nH]c(=O)[nH]c3=O)nn3ccnc23)CC1(F)F` (stereo not drawn) [Example 525, 1-(6-(2,4-dioxo-1,2,3,4-tetrahydropyrimidin-5-yl)imidazo[1,2-b]pyridazin-8-yl)-4,4-difluoropyrrolidin-3-yl ethyl carbonate]: at CD73 [1], 1.54 nM corresponded to half-maximal inhibition (IC50). Moreover, the EC50 (in general, the concentration needed to bring the measured effect to its halfway point) on CD73 [2] amounted to 4.43 nM.

Regarding `CCNC(=O)OC1CN(c2cc(-c3c[nH]c(=O)[nH]c3=O)nn3ccnc23)CC1(F)F` (stereo not drawn) [Example 526, 1-(6-(2,4-dioxo-1,2,3,4-tetrahydropyrimidin-5-yl)imidazo[1,2-b]pyridazin-8-yl)-4,4-difluoropyrrolidin-3-yl ethylcarbamate], 1.32 nM corresponded to half-maximal inhibition at CD73 [1] (IC50). Besides, a half-maximal response at CD73 [2] (EC50) required 1.13 nM.

`O=c1[nH]cc(-c2cc(N3C[C@H](Oc4ccc(C(F)(F)F)cn4)C(F)(F)C3)c3nccn3n2)c(=O)[nH]1` [Example 529, (S)-5-(8-(3,3-difluoro-4-((5-(trifluoromethyl)pyridin-2-yl)oxy)pyrrolidin-1-yl)imidazo[1,2-b]pyridazin-6-yl)pyrimidine-2,4(1H,3H)-dione]: the IC50 (usually the concentration that inhibits the measured activity by half) against CD73 [1] amounted to 0.7 nM. The compound also displayed an EC50 on CD73 [2] of 2.25 nM.

`O=c1[nH]cc(-c2cc(N3C[C@@H](Oc4ccc(C(F)(F)F)cn4)C(F)(F)C3)c3nccn3n2)c(=O)[nH]1` [Example 530, (R)-5-(8-(3,3-difluoro-4-((5-(trifluoromethyl)pyridin-2-yl)oxy)pyrrolidin-1-yl)imidazo[1,2-b]pyridazin-6-yl)pyrimidine-2,4(1H,3H)-dione] registered an IC50 against CD73 [1] of 12.4 nM. Besides, the EC50 on CD73 [2] came to 50.8 nM.

As for `O=c1[nH]cc(-c2cc(N3C[C@H](Oc4ncc(C(F)(F)F)cn4)C(F)(F)C3)c3nccn3n2)c(=O)[nH]1` [Example 531, (S)-5-(8-(3,3-difluoro-4-((5-(trifluoromethyl)pyrimidin-2-yl)oxy)pyrrolidin-1-yl)imidazo[1,2-b]pyridazin-6-yl)pyrimidine-2,4(1H,3H)-dione], 1.34 nM corresponded to half-maximal inhibition against CD73 [1] (IC50). The compound also displayed an EC50 on CD73 [2] of 11.4 nM.

`O=c1[nH]cc(-c2cc(N3C[C@@H](Oc4ncc(C(F)(F)F)cn4)C(F)(F)C3)c3nccn3n2)c(=O)[nH]1` [Example 532, (R)-5-(8-(3,3-difluoro-4-((5-(trifluoromethyl)pyrimidin-2-yl)oxy)pyrrolidin-1-yl)imidazo[1,2-b]pyridazin-6-yl)pyrimidine-2,4(1H,3H)-dione] returned an IC50 on CD73 [1] of 4.42 nM. In addition, on CD73 [2], the EC50 worked out at 21.5 nM.

In turn, `CC(C)NC(=O)O[C@H]1CN(c2cc(-c3c[nH]c(=O)[nH]c3=O)nn3ccnc23)CC1(F)F` [Example 533, (S)-1-(6-(2,4-dioxo-1,2,3,4-tetrahydropyrimidin-5-yl)imidazo[1,2-b]pyridazin-8-yl)-4,4-difluoropyrrolidin-3-yl isopropylcarbamate] had an IC50 at CD73 [1] of 0.78 nM. At CD73 [2], this compound displayed an EC50 of 0.17 nM.

Regarding `CC(C)NC(=O)O[C@@H]1CN(c2cc(-c3c[nH]c(=O)[nH]c3=O)nn3ccnc23)CC1(F)F` [Example 534, (R)-1-(6-(2,4-dioxo-1,2,3,4-tetrahydropyrimidin-5-yl)imidazo[1,2-b]pyridazin-8-yl)-4,4-difluoropyrrolidin-3-yl isopropylcarbamate], the IC50 against CD73 [1] came out at 9.8 nM. This compound had an EC50 on CD73 [2] of 5.18 nM.

Turning to `O=C(NCC(F)(F)F)OC1CN(c2cc(-c3c[nH]c(=O)[nH]c3=O)nn3ccnc23)CC1(F)F` (stereo not drawn) [Example 535, 1-(6-(2,4-dioxo-1,2,3,4-tetrahydropyrimidin-5-yl)imidazo[1,2-b]pyridazin-8-yl)-4,4-difluoropyrrolidin-3-yl (2,2,2-trifluoroethyl)carbamate], the IC50 at CD73 [1] came to 1.63 nM. The EC50 on CD73 [2] is 0.71 nM.

Regarding `O=C(OC1CN(c2cc(-c3c[nH]c(=O)[nH]c3=O)nn3ccnc23)CC1(F)F)N1CC(F)(F)C1` (stereo not drawn) [Example 536, 1-(6-(2,4-dioxo-1,2,3,4-tetrahydropyrimidin-5-yl)imidazo[1,2-b]pyridazin-8-yl)-4,4-difluoropyrrolidin-3-yl 3,3-difluoroazetidine-1-carboxylate], the midpoint of inhibition at CD73 [1], the IC50, lay at 3.83 nM. For the same compound, the EC50 on CD73 [2] was 5.05 nM.

Turning to `O=c1[nH]cc(-c2cc(N3C[C@H](Oc4ccccn4)C(F)(F)C3)c3nccn3n2)c(=O)[nH]1` [Example 537, (S)-5-(8-(3,3-difluoro-4-(pyridin-2-yloxy)pyrrolidin-1-yl)imidazo[1,2-b]pyridazin-6-yl)pyrimidine-2,4(1H,3H)-dione], the IC50 against CD73 [1] stood at 0.42 nM. Further, the midpoint of the response at CD73 [2], the EC50, lay at 2.09 nM.

On to `O=c1[nH]cc(-c2cc(N3C[C@@H](Oc4ccccn4)C(F)(F)C3)c3nccn3n2)c(=O)[nH]1` [Example 538, (R)-5-(8-(3,3-difluoro-4-(pyridin-2-yloxy)pyrrolidin-1-yl)imidazo[1,2-b]pyridazin-6-yl)pyrimidine-2,4(1H,3H)-dione], for which the IC50 at CD73 [1] worked out at 11.5 nM. Further, the EC50 on CD73 [2] amounted to 48.9 nM.

On CD73 [1], `O=C(OCC(F)(F)F)O[C@H]1CN(c2cc(-c3c[nH]c(=O)[nH]c3=O)nn3ccnc23)CC1(F)F` [Example 541, (S)-1-(6-(2,4-dioxo-1,2,3,4-tetrahydropyrimidin-5-yl)imidazo[1,2-b]pyridazin-8-yl)-4,4-difluoropyrrolidin-3-yl (2,2,2-trifluoroethyl) carbonate] had an IC50 of 0.55 nM. The EC50 at CD73 [2] came to 36.3 nM.

With `O=C(OCC(F)(F)F)O[C@@H]1CN(c2cc(-c3c[nH]c(=O)[nH]c3=O)nn3ccnc23)CC1(F)F` [Example 543, (R)-1-(6-(2,4-dioxo-1,2,3,4-tetrahydropyrimidin-5-yl)imidazo[1,2-b]pyridazin-8-yl)-4,4-difluoropyrrolidin-3-yl (2,2,2-trifluoroethyl) carbonate], on CD73 [1], the IC50 amounted to 1.43 nM. For the same compound, the EC50 on CD73 [2] stood at 17.4 nM.

On to `CC(C)(C)NC(=O)O[C@H]1CN(c2cc(-c3c[nH]c(=O)[nH]c3=O)nn3ccnc23)CC1(F)F` [Example 544, (S)-1-(6-(2,4-dioxo-1,2,3,4-tetrahydropyrimidin-5-yl)imidazo[1,2-b]pyridazin-8-yl)-4,4-difluoropyrrolidin-3-yl tert-butylcarbamate], for which half-maximal inhibition against CD73 [1] (IC50) required 1.01 nM. This compound gave an EC50 at CD73 [2] of 0.13 nM.

For the compound `O=C(NCC(F)(F)F)O[C@H]1CN(c2cc(-c3c[nH]c(=O)[nH]c3=O)nn3ccnc23)CC1(F)F` [Example 545, (S)-1-(6-(2,4-dioxo-1,2,3,4-tetrahydropyrimidin-5-yl)imidazo[1,2-b]pyridazin-8-yl)-4,4-difluoropyrrolidin-3-yl (2,2,2-trifluoroethyl)carbamate], the IC50 on CD73 [1] stood at 0.4 nM. This compound yielded an EC50 on CD73 [2] of 0.22 nM.

In turn, `C[C@@H](NC(=O)O[C@H]1CN(c2cc(-c3c[nH]c(=O)[nH]c3=O)nn3ccnc23)CC1(F)F)C(F)(F)F` [Example 546, (S)-1-(6-(2,4-dioxo-1,2,3,4-tetrahydropyrimidin-5-yl)imidazo[1,2-b]pyridazin-8-yl)-4,4-difluoropyrrolidin-3-yl ((R)-1,1,1-trifluoropropan-2-yl)carbamate] came in with an IC50 against CD73 [1] of 1.23 nM. This compound also returned an EC50 on CD73 [2] of 0.69 nM.

`C[C@H](NC(=O)O[C@H]1CN(c2cc(-c3c[nH]c(=O)[nH]c3=O)nn3ccnc23)CC1(F)F)C(F)(F)F` [Example 547, (S)-1-(6-(2,4-dioxo-1,2,3,4-tetrahydropyrimidin-5-yl)imidazo[1,2-b]pyridazin-8-yl)-4,4-difluoropyrrolidin-3-yl ((S)-1,1,1-trifluoropropan-2-yl)carbamate] gave an IC50 against CD73 [1] of 0.31 nM. This compound also returned an EC50 on CD73 [2] of 0.13 nM.

In turn, `COC[C@@H](C)NC(=O)O[C@H]1CN(c2cc(-c3c[nH]c(=O)[nH]c3=O)nn3ccnc23)CC1(F)F` [Example 548, (S)-1-(6-(2,4-dioxo-1,2,3,4-tetrahydropyrimidin-5-yl)imidazo[1,2-b]pyridazin-8-yl)-4,4-difluoropyrrolidin-3-yl ((R)-1-methoxypropan-2-yl)carbamate] returned an IC50 against CD73 [1] of 0.63 nM. This compound also came in with an EC50 on CD73 [2] of 0.13 nM.

`COC[C@H](C)NC(=O)O[C@H]1CN(c2cc(-c3c[nH]c(=O)[nH]c3=O)nn3ccnc23)CC1(F)F` [Example 549, (S)-1-(6-(2,4-dioxo-1,2,3,4-tetrahydropyrimidin-5-yl)imidazo[1,2-b]pyridazin-8-yl)-4,4-difluoropyrrolidin-3-yl ((S)-1-methoxypropan-2-yl)carbamate] gave an IC50 at CD73 [1] of 0.99 nM. The same compound displayed an EC50 on CD73 [2] of 0.28 nM.

As to `CC(NC(=O)O[C@H]1CN(c2cc(-c3c[nH]c(=O)[nH]c3=O)nn3ccnc23)CC1(F)F)C(F)F` (stereo partly drawn) [Example 550, (S)-1-(6-(2,4-dioxo-1,2,3,4-tetrahydropyrimidin-5-yl)imidazo[1,2-b]pyridazin-8-yl)-4,4-difluoropyrrolidin-3-yl (1,1-difluoropropan-2-yl)carbamate], at CD73 [1], the IC50 worked out at 1.67 nM. The compound further showed an EC50 at CD73 [2] of 0.83 nM.

For the compound `O=C(NC12CC(C1)C2)O[C@H]1CN(c2cc(-c3c[nH]c(=O)[nH]c3=O)nn3ccnc23)CC1(F)F` [Example 551, (S)-1-(6-(2,4-dioxo-1,2,3,4-tetrahydropyrimidin-5-yl)imidazo[1,2-b]pyridazin-8-yl)-4,4-difluoropyrrolidin-3-yl bicyclo[1.1.1]pentan-1-ylcarbamate], it took 0.24 nM to reach half-maximal inhibition on CD73 [1] (IC50). In addition, a half-maximal response on CD73 [2] (EC50) required 0.13 nM.

`N#Cc1cc([C@H]2C[C@@H]2c2cc(-c3c[nH]c(=O)[nH]c3=O)nn3ccnc23)ccc1Cl` [Example 553, 2-chloro-5-((1S,2S)-2-(6-(2,4-dioxo-1,2,3,4-tetrahydropyrimidin-5-yl)imidazo[1,2-b]pyridazin-8-yl)cyclopropyl)benzonitrile]: the IC50 against CD73 [1] worked out at 1.39 nM. On CD73 [2], this compound gave an EC50 of 6.89 nM.

In turn, `O=c1[nH]cc(-c2cc([C@H]3C[C@@H]3c3ccc(C(F)(F)F)cc3)c3nccn3n2)c(=O)[nH]1` [Example 554, 5-(8-((1S,2S)-2-(4-(trifluoromethyl)phenyl)cyclopropyl)imidazo[1,2-b]pyridazin-6-yl)pyrimidine-2,4(1H,3H)-dione] came in with an IC50 on CD73 [1] of 1.57 nM. This compound also yielded a concentration giving a half-maximal response (EC50) on CD73 [2] of 12 nM.
